In US7495018B2, “Substituted 1,3-thiazole compounds, their production and use” (Takeda Pharmaceutical Company Limited, priority 2000, dated 2009):

| SMILES | melting point [°C] |
| --- | --- |
| Cc1cccc(-c2nc(-c3ccc(Cl)cc3)sc2-c2ccnc(C)c2)c1 [Example Compound 14-2, 2-(4-chlorophenyl)-4-(3-methylphenyl)-5-(2-methyl-4-pyridyl)-1,3-thiazole] | 104 to 105 |
| CC(=O)Nc1cc(-c2sc(C3CCN(C(C)=O)CC3)nc2-c2cccc(Cl)c2)ccn1 [Example 93, N-[4-[2-(1-acetylpiperidin-4-yl)-4-(3-chlorophenyl)-1,3-thiazol-5-yl]-2-pyridyl]acetamide] | 160 to 161 |
| CC(F)(F)c1nc(-c2cccc(Cl)c2)c(-c2ccnc(N)c2)s1 | 131 to 132 |
| CCC(=O)Nc1cc(-c2sc(C(C)O)nc2-c2cccc(Cl)c2)ccn1 (stereo not shown) [Example 105, N-[4-[4-(3-chlorophenyl)-2-(1-hydroxyethyl)-1,3-thiazol-5-yl]-2-pyridyl]propionamide] | 131 to 132 |
| CCC(=O)Nc1cc(-c2sc(CCSC)nc2-c2cccc(Cl)c2)ccn1 [Example 102-2, N-[4-[4-(3-chlorophenyl)-2-[2-(methylthio)ethyl]-1,3-thiazol-5-yl]-2-pyridyl]propionamide] | 91 to 92 |
| CCC(=O)Nc1cc(-c2sc(C(C)OC(=O)c3ccccc3)nc2-c2cccc(C)c2)ccn1 (stereo not shown) [Example 102-5, 1-[4-(3-methylphenyl)-5-(2-propionylamino-4-pyridyl)-1,3-thiazol-2-yl]ethyl benzoate] | 102 to 103 |
| CCc1nc(-c2cccc(C)c2)c(-c2ccnc(NC3CCCCC3)c2)s1 [Example Compound 36-4, N-cyclohexyl-4-[2-ethyl-4-(3-methylphenyl)-1,3-thiazol-5-yl]-2-pyridylamine] | 110 to 112 |
| CCC(=O)Nc1cc(-c2sc(C3CCN(C(C)=O)CC3)nc2-c2cccc(Cl)c2)ccn1 [Example 94, N-[4-[2-(1-acetylpiperidin-4-yl)-4-(3-chlorophenyl)-1,3-thiazol-5-yl]-2-pyridyl]propionamide] | 174 to 175 |
| COc1ccc(-c2nc(NC(=O)c3ccccc3)sc2-c2ccnc(N)c2)cc1 [Example Compound 51, N-[5-(2-amino-4-pyridyl)-4-(4-methoxyphenyl)-1,3-thiazol-2-yl]benzamide] | 219 to 222 |
| Cc1cccc(-c2nc(-c3ccccc3Cl)sc2-c2ccnc(C)c2)c1 [Example Compound 14-1, 2-(2-chlorophenyl)-4-(3-methylphenyl)-5-(2-methyl-4-pyridyl)-1,3-thiazole] | 83 to 84 |
| Cc1cccc(-c2nc(N(C)C(=O)c3cccnc3)sc2-c2ccnc(NC3CCCC3)c2)c1 [Example Compound 42-9, N-[5-(2-cyclopentylamino-4-pyridyl)-4-(3-methylphenyl)-1,3-thiazol-2-yl]N-methylnicotinamide] | 148 |
| CC(=O)Nc1cc(-c2sc(C(C)OC(=O)c3ccccc3)nc2-c2cccc(Cl)c2)ccn1 (stereo not shown) [Example 103-1, 1-[5-(2-acetylamino-4-pyridyl)-4-(3-chlorophenyl)-1,3-thiazol-2-yl]ethyl benzoate] | 152 to 154 |
| CCc1nc(-c2cccc(Cl)c2)c(-c2ccnc(NC(=O)CC3CCCC3)c2)s1 [Example 90-1, N-[4-[4-(3-chlorophenyl)-2-ethyl-1,3-thiazol-5-yl]-2-pyridyl]cyclopentylacetamide] | 121 to 122 |
| CCC(=O)Nc1cc(-c2sc(CCSC)nc2-c2cccc(C)c2)ccn1 [Example 102-1, N-[4-[4-(3-methylphenyl)-2-[2-(methylthio)ethyl]-1,3-thiazol-5-yl]-2-pyridyl]propionamide] | 85 to 86 |
| Cc1cccc(-c2nc(N3CCNC3=O)sc2-c2ccnc(C)c2)c1 [Example Compound 66, 1-[4-(3-methylphenyl)-5-(2-methyl-4-pyridyl)-1,3-thiazol-2-yl]imidazolidin-2-one] | 200 to 201 |
| CCC(=O)Nc1cc(-c2sc(-c3ccc(S(C)(=O)=O)cc3)nc2-c2cccc(Cl)c2)ccn1 [Example Compound 58-7, N-[4-[4-(3-chlorophenyl)-2-(4-methylsulfonylphenyl)-1,3-thiazol-5-yl]-2-pyridyl]propionamide] | 224 to 225 |
| CSc1ccc(-c2nc(-c3cccc(Cl)c3)c(-c3ccnc(NC(C)=O)c3)s2)cc1 [Example Compound 30-5, N-[4-[4-(3-chlorophenyl)-2-[4-(methylthio)phenyl]-1,3-thiazol-5-yl]-2-pyridyl]acetamide] | 207 to 208 |
| CCc1nc(-c2cccc(C)c2)c(-c2ccnc(NC(=O)OC(C)(C)C)c2)s1 [Example 3, 5-[2-(tert-butoxycarbonylamino)-4-pyridyl]-2-ethyl-4-(3-methylphenyl)-1,3-thiazole] | 162 to 163 |
| Cc1nc(-c2cccc(Cl)c2)c(-c2ccnc(N)c2)s1 [Example Compound 27-2, 4-[4-(3-chlorophenyl)-2-methyl-1,3-thiazol-5-yl]-2-pyridylamine] | 142 to 143 |
| CCc1nc(-c2cccs2)c(-c2ccnc(NC(C)=O)c2)s1 [Example Compound 30-4, N-[4-[2-ethyl-4-(2-thienyl)-1,3-thiazol-5-yl]-2-pyridyl]acetamide] | 154 to 155 |
| CCc1nc(-c2ccc(F)cc2)c(-c2ccnc(N)c2)s1 [Example Compound 20-3, 4-[2-ethyl-4-(4-fluorophenyl)-1,3-thiazol-5-yl]-2-pyridylamine] | 140 to 141 |
| CCc1nc(-c2cccc(F)c2)c(-c2ccnc(NC(C)=O)c2)s1 [Example 82-5, N-[4-[2-ethyl-4-(3-fluorophenyl)-1,3-thiazol-5-yl]-2-pyridyl]acetamide] | 141 to 142 |
| Cc1cccc(-c2nc(N3CCN(C)CC3)sc2-c2ccnc(C)c2)c1 [Example Compound 14-14, 4-(3-methylphenyl)-2-(1-methylpiperazin-4-yl)-5-(2-methyl-4-pyridyl)-1,3-thiazole] | 127 to 130 |
| CCCCC(=O)Nc1cc(-c2sc(CC)nc2-c2cccc(C)c2)ccn1 [Example 87-1, N-[4-[2-ethyl-4-(3-methylphenyl)-1,3-thiazol-5-yl]-2-pyridyl]valeramide] | 81 to 82 |
| Cc1cccc(-c2nc(-c3ccc(F)cc3)sc2-c2ccnc(N)c2)c1 [Example Compound 18-1, 4-[2-(4-fluorophenyl)-4-(3-methylphenyl)-1,3-thiazol-5-yl]-2-pyridylamine] | 160 to 162 |
| Cc1cc(-c2sc(-c3ccc(S(C)(=O)=O)cc3)nc2-c2ccc(F)cc2)ccn1 [Example Compound 58-5, 4-(4-fluorophenyl)-5-(2-methyl-4-pyridyl)-2-(4-methylsulfonylphenyl)-1,3-thiazole] | 190 to 192 |
| CCC(=O)Nc1cc(-c2sc(CC)nc2-c2cccc(C(F)(F)F)c2)ccn1 [Example 84-3, N-[4-[2-ethyl-4-(3-trifluoromethylphenyl)-1,3-thiazol-5-yl]-2-pyridyl]propionamide] | 126 to 127 |
| Cc1cccc(-c2nc(N)sc2-c2ccnc(NC3CCCCC3)c2)c1 [Example Compound 34-2, [5-(2-cyclohexylamino-4-pyridyl)-4-(3-methylphenyl)-1,3-thiazol-2-yl]amine] | 168 to 169 |
